Publication PMC12147034, “Identification of alkynyl nicotinamide HSN748 as a RET solvent-front mutant inhibitor with intracranial efficacy” (RSC Medicinal Chemistry, 2025)
Read-outs that look alike come from different tables or passages of the source.

Columns and labels:
[1] = system: KIF5B-RET-driven lung tumors; experiment: KIF5B-RET-driven lung tumors in C/KR transgenic mice; format: in vivo
Experimental: For the HSN748 treatment experiment in CCSP-rtTA/tetO-KIF5B-RET(C/KR) transgenic mice,[16] approximately 2 months old male and female C/KR transgenic mice were fed with rodent chow containing 200 mg kg^−1 doxycycline (Dox Diet, Bio-Serv) for 4 months to induce KIF5B-RET-driven lung tumors. For the HSND19 treatment experiment in C/KR transgenic mice, 3 months old male and female C/KR transgenic mice were induced with doxycycline for 6 months as above and then treated with HSND19 or vehicle by oral gavage as indicated in Fig. 3E. At the endpoint, mouse lungs were collected and either fixed in 10% buffered formalin or snap-frozen in liquid nitrogen as described.[16,27]
For histological assessment of lung tumor burden and response to treatment, sections (4 μm thick) of formalin-fixed paraffin-embedded lung tissues were stained with hematoxylin and eosin (H&E). Two H&E-stained tissue sections that were 5 slides apart were scanned using an Axioscan Zeiss slide scanner at 20X magnification. The scanned lung images were then analyzed with the HALO® image analysis program (v3.6, Indica Labs). The random forest machine learning algorithm of HALO® was used to identify tumor vs. normal area by using the tissue classifier add-on. Tumor and normal areas were classified using normal mouse lungs as the reference. Fibrotic stroma was excluded.

[2] = system: B/KR(G810C)-luc brain tumors; experiment: Intracranial B/KR(G810C)-luc tumor experiment (bioluminescence imaging); format: in vivo, mice; details: for inhibition at 10 mg/kg: Mus musculus, 10 mg kg^-1, not statistically significant
Experimental: Fig. 5 Intracranial efficacy of alkynyl nicotinamide-based RET TKIs. B/KR(G810C)-luc cells were injected into mouse brains and treated with indicated compounds. (A) Responses of intracranial tumors to the treatment were monitored by measurement of bioluminescence signal in the animal heads. The data are means and SEM. (B) Response of extracranial tumors were monitored by subtracting whole body bioluminescence signal with the bioluminescence signals of the head. (C) Bioluminescence images of vehicle- and 20 mg kg^−1 HSN748-treated mice on day 0 and day 23 to illustrate the progression of tumors in vehicle-treated mice and suppression of tumor growth in HSN748-treated mic. TEXT PRINTED IN THE PICTURE: (C) HSN748: ROI 5 = 6.99e+4 (20 mg/kg; Day 0); ROI 5 = 9.86e+4 (20 mg/kg; Day 0); ROI 1 = 2.22e+5 (20 mg/kg; Day 0); ROI 1 = 1.08e+8 (20 mg/kg; Day 23); ROI 2 = 1.43e+7 (20 mg/kg; Day 23); ROI 3 = 1.59e+9 (20 mg/kg; Day 23); ROI 1 = 3.56e+8 (20 mg/kg; Day 23) DOUBTS OF THE COPYIST ABOUT THIS PICTURE: Panels A and B print no numbers for any substance, only curves, axes and legends, so nothing was read from them. / Panel C: the ROI values are very small, blurred instrument overlays on the mouse images. In all values given, the digits 3, 5, 6, 8 and 9 and the exponents cannot be told apart with certainty. / HSN748, Day 0, 'ROI 5 = 6.99e+4': the ROI number may be 1 or 5, and 6.99 may be 8.99. / HSN748, Day 0, 'ROI 5 = 9.86e+4': the ROI number may be 3 or 5, and the exponent may be cut off at the image edge. / HSN748, Day 0, 'ROI 1 = 2.22e+5': the last digit of the exponent is uncertain. / HSN748, Day 0: 'ROI 3 = ...', 'ROI 2 = 2.35e...', 'ROI 1 = 3.0...' and the fragments 'e+5' and 'e+4' are cut off by the image crop and were left out. / HSN748, Day 23: 'ROI 2 = ...' in the right image is cut off and was left out. / HSN748, Day 23, 'ROI 1 = 1.08e+8': may be 1.06 or 1.08. / HSN748, Day 23, 'ROI 3 = 1.59e+9': the exponent may be 8 or 9. / HSN748, Day 23, 'ROI 1 = 3.56e+8': may be 3.58 or 3.56. / The Vehicle (control) mice in panel C also carry ROI labels. They were left out because Vehicle is a control, not a substance, and several are cut off. Day 0 reads about ROI 1 = 7.31e+4, ROI 2 = 9.65e+4, ROI 3 = 2.43e+5. Day 23 reads about ROI 1 = 7.32e+6, ROI 2 = 1.14e+9, ROI 3 = 1.31e+..., ROI 1 = 7.77e+9.
Intracranial tumor experiments were performed using female NRG mice (Jackson Laboratory stock #007799) 10–12 weeks old as the hosts. Mice were anesthetized with 3% isoflurane gas and situated in a stereotactic frame (Stoelting). To determine the injection site, the scalp was opened with a scalpel and the bregma was located. Then the point 1.5 mm posterior and 2 mm to the right was identified and a 2 mm burr hole was drilled just through the skull. 3 × 10^5 B/KR(G810C)-Luc cells in 3 μL were injected into the brain at a depth of 4 mm over 3 minutes using a 10 μL Hamilton syringe. The syringe was withdrawn over 5 minutes and the hole was filled with bone wax, the scalp was closed with medical glue, and the mice were returned to a heated cage for recovery. Tumor growth was determined via bioluminescent imaging with a Spectral Ami Optical Imaging System (Bruker). Mice were anesthetized with 3% isoflurane gas and injected intraperitoneally with 150 mg kg^−1D-luciferin. After 15 minutes, mice were imaged for photon emission to determine tumor burden.

[3] = read-out: inhibition of the extracranial tumors
[4] = read-out: inhibition of the intracranial tumors

Compound	body weight loss ([1]; C/KR transgenic mice)	phospho-RET in lung tissue (immunoblotting) ([1]; C/KR transgenic mice)	median lung tumor area ([1]; HSN748 experiment, 1 month treatment, Dox-induced C/KR mice, vehicle 20.1%) [%]	extracranial bioluminescence signals of B/KR(G810C)-luc tumor cells ([2]; 20 mg kg^-1)	inhibition of intracranial B/KR(G810C)-luc tumors ([2]; 20 mg kg^-1, bioluminescence signal in the head)	inhibition at 10 mg/kg [2, 3] [%]	inhibition at 10 mg/kg [2, 4] [%]	median lung tumor burden ([1]; HSND19 experiment, 1 month treatment, Dox-induced C/KR mice, vehicle 39%) [%]
CN1CCN(Cc2ccc(NC(=O)c3cncc(C#Cc4cnc5cccnn45)c3)cc2C(F)(F)F)CC1 [HSN748]	not observed	suppressed	9.2	significantly inhibited	statistically significant inhibition	58	52	
Cc1n[nH]c2ncc(C#Cc3cncc(C(=O)Nc4ccc(CN5CCN(C)CC5)c(C(F)(F)F)c4)c3)cc12 [HSND19, 5-((3-Methyl-1H-pyrazolo[3,4-b]pyridin-5-yl)ethynyl)-N-(4-((4-methylpiperazin-1-yl)methyl)-3-(trifluoromethyl)phenyl)nicotinamide]		reduced		significantly inhibited		85	28	4.84
